Measurements from patent publication US9562031B1, “Phenethyldihydrobenzodioxolones and methods of use” (Sequoia Sciences, Inc., priority 2015, dated 2017).
Like-named read-outs stand apart in the source and are kept apart here.

Tests used:
[1] = system: M14 (amelanotic melanoma) cells; test: antiproliferation assay (72 h, CELLTITER 96), M14; type: cell-based, human; conditions: Homo sapiens
Method: (§1) All of the compounds shown in Table 3-Table 8 below were prepared synthetically as described in EXAMPLE I. The compounds were tested for their ability to inhibit the proliferation of human cancer cells in vitro as described in the following paragraph. Table 3-Table 8 list the IC50 values in the M14 and NCI-H460 human cancer cell lines. IC50 is defined as the concentration of compound necessary to achieve 50% of the maximum growth inhibition.
(§2) For the antiproliferation assay, NCI-H460 (large cell lung carcinoma) or M14 (amelanotic melanoma) cells were grown in RPMI-1640 with 10% FBS supplemented with L-glutamine and HEPES. Cells were seeded into 96-well plates at 5×10^2 to 5×10^4 cells/well and allowed to adhere overnight; the medium was then removed. A stock solution of test compound in DMSO was diluted in medium to generate a series of working solutions. Aliquots (100 μl) of the working solutions were then added to the appropriate test wells to expose cells to the final concentrations of compound in a total volume of 100 μl. Seven different concentrations were tested, with 2-5 wells per concentration. Camptothecin was used as a positive control; wells containing vehicle without compound were used as negative controls. Plates were kept for 72 h in a 37° C., 5% CO2 incubator. After incubation, viable cells were detected with the CELLTITER 96 AQueous Non-Radioactive Cell Proliferation Assay (Promega), and IC50 values were determined using GraphPad Prism 5 software.

[2] = system: NCI-H460 (large cell lung carcinoma) cells; test: antiproliferation assay (72 h, CELLTITER 96), NCI-H460; type: cell-based, human; conditions: Homo sapiens
Method: as §1, §2

[3] = NCI-H460, Table 5, read-out: NCI-H460 IC50
[4] = NCI-H460, Table 3, read-out: NCI-H460 IC50
[5] = NCI-H460, Table 7, read-out: NCI-H460 IC50
[6] = NCI-H460, Table 4, read-out: NCI-H460 IC50
[7] = NCI-H460, stereoisomers of compound 4, Table 1, read-out: IC50 NCI-H460

| SMILES | IC50 ([1]; Table 3) [nM] | IC50 [2, 4] [nM] | further results |
| --- | --- | --- | --- |
| C=CCC1C[C@]2([C@@H](C)Cc3cc(F)c(NC)cc3F)OCOC2=CC1=O (mixture of isomers) [Compound 45, 6-allyl-7a-(1-(2,5-difluoro-4-(methylamino)phenyl)propan-2-yl)-7,7a-dihydrobenzo[d][1,3]dioxol-5(6H)-one] |  |  | IC50 ([1]; Table 5): 98 nM; IC50 [2, 3]: 340 nM |
| C=CC[C@H]1C[C@]2([C@H](C)Cc3ccc(OC)cc3F)OCOC2=CC1=O (relative stereo) [Compound 3, 6-allyl-7a-(1-(2-fluoro-4-methoxyphenyl)propan-2-yl)-7,7a-dihydrobenzo[d][1,3]dioxol-5(6H)-one] | 13 | 77 |  |
| C=CC[C@H]1C[C@]2([C@H](C)Cc3cc(F)c(NC)cc3F)OCOC2=CC1=O (relative stereo) [Compound 44, 6-allyl-7a-(1-(2,5-difluoro-4-(methylamino)phenyl)propan-2-yl)-7,7a-dihydrobenzo[d][1,3]dioxol-5(6H)-one] |  |  | IC50 ([1]; Table 5): 16 nM; IC50 [2, 3]: 68 nM |
| COc1ccc(C[C@H](C)[C@]23C[C@H](CC4CC4)C(=O)C=C2OCO3)c(F)c1 (relative stereo) [Compound 63, (7aR)-6-(cyclopropylmethyl)-7a-((S)-1-(2-fluoro-4-methoxyphenyl)propan-2-yl)-7,7a-dihydrobenzo[d][1,3]dioxol-5(6H)-one] |  |  | IC50 ([1]; Table 7): > 20000 nM; IC50 [2, 5]: 1700 nM |
| COc1ccc(C[C@H](C)[C@]23C[C@H](C/C=C/c4ccccc4)C(=O)C=C2OCO3)cc1OC (relative stereo) [Compound 71, (6S,7aR)-6-cinnamyl-7a-((S)-1-(3,4-dimethoxyphenyl)propan-2-yl)-7,7a-dihydrobenzo[d][1,3]dioxol-5(6H)-one] |  |  | IC50 ([1]; Table 7): 6400 nM; IC50 [2, 5]: 14000 nM |
| C=CC[C@H]1C[C@]2(C(C)Cc3cc(NC(C)=O)c(OC)cc3F)OCOC2=CC1=O (stereo in doubt) [Compound 19, N-(5-((S)-2-((3aR,5S)-5-allyl-6-oxo-3a,4,5,6-tetrahydrobenzo[d][1,3]dioxol-3a-yl)propyl)-4-fluoro-2-methoxyphenyl)acetamide] | 52 | 71 |  |
| C=CC[C@H]1C[C@]2([C@@H](C)Cc3cc(O)c(OC)cc3F)OCOC2=CC1=O [Compound 5, (6S,7aR)-6-allyl-7a-((S)-1-(2-fluoro-5-hydroxy-4-methoxyphenyl)propan-2-yl)-7,7a-dihydrobenzo[d][1,3]dioxol-5(6H)-one] | 9 | 33 |  |
| C=CC[C@H]1C[C@]2([C@@H](C)Cc3cc(F)c(OC)cc3F)OCOC2=CC1=O [Compound 7, (6S,7aR)-6-allyl-7a-((S)-1-(2,5-difluoro-4-methoxyphenyl)propan-2-yl)-7,7a-dihydrobenzo[d][1,3]dioxol-5(6H)-one] | 23 | 59 |  |
| C=CC[C@H]1C[C@]2([C@@H](C)Cc3cc(C)c(OC)cc3F)OCOC2=CC1=O [Compound 8, (6S,7aR)-6-allyl-7a-((S)-1-(2-fluoro-4-methoxy-5-methylphenyl)propan-2-yl)-7,7a-dihydrobenzo[d][1,3]dioxol-5(6H)-one] | 230 | 650 |  |
| C=CC[C@H]1C[C@]2([C@H](C)Cc3cc(C(=O)OC)c(OC)cc3F)OCOC2=CC1=O [Compound 9, methyl 5-((R)-2-((3aR,5S)-5-allyl-6-oxo-3a,4,5,6-tetrahydrobenzo[d][1,3]dioxol-3a-yl)propyl)-4-fluoro-2-methoxybenzoate] | 210 | 260 |  |
| C=CC[C@H]1C[C@]2([C@@H](C)Cc3cc(C(=O)OC)c(OC)cc3F)OCOC2=CC1=O [Compound 10, methyl 5-((S)-2-((3aR,5S)-5-allyl-6-oxo-3a,4,5,6-tetrahydrobenzo[d][1,3]dioxol-3a-yl)propyl)-4-fluoro-2-methoxybenzoate] | > 20000 | 2200 |  |
| C=CC[C@H]1C[C@]2(C(C)Cc3cc(C(N)=O)c(OC)cc3F)OCOC2=CC1=O (stereo partly drawn) [Compound 11, 5-(2-((3aR,5S)-5-allyl-6-oxo-3a,4,5,6-tetrahydrobenzo[d][1,3]dioxol-3a-yl)propyl)-4-fluoro-2-methoxybenzamide] | 4 | 330 |  |
| C=CC[C@H]1C[C@]2([C@@H](C)Cc3cc(C(=O)NC)c(OC)cc3F)OCOC2=CC1=O [Compound 12, 5-((S)-2-((3aR,5S)-5-allyl-6-oxo-3a,4,5,6-tetrahydrobenzo[d][1,3]dioxol-3a-yl)propyl)-4-fluoro-2-methoxy-N-methylbenzamide] | 240 | 520 |  |
| C=CC[C@H]1C[C@]2([C@H](C)Cc3cc(C(=O)NC)c(OC)cc3F)OCOC2=CC1=O [Compound 13, 5-((R)-2-((3aR,5S)-5-allyl-6-oxo-3a,4,5,6-tetrahydrobenzo[d][1,3]dioxol-3a-yl)propyl)-4-fluoro-2-methoxy-N-methylbenzamide] | 190 | 370 |  |
| C=CC[C@H]1C[C@]2([C@@H](C)Cc3cc(C#N)c(OC)cc3F)OCOC2=CC1=O [Compound 14, 5-((S)-2-((3aR,5S)-5-allyl-6-oxo-3a,4,5,6-tetrahydrobenzo[d][1,3]dioxol-3a-yl)propyl)-4-fluoro-2-methoxybenzonitrile] | 37 | 150 |  |
| C=CC[C@H]1C[C@]2([C@@H](C)Cc3cc(OC)c(OC)cc3F)OCOC2=CC1=O [Compound 15, (6S,7aR)-6-allyl-7a-((S)-1-(2-fluoro-4,5-dimethoxyphenyl)propan-2-yl)-7,7a-dihydrobenzo[d][1,3]dioxol-5(6H)-one] | 14 | 120 |  |
| C=CCOc1cc(C[C@@H](C)[C@]23C[C@H](CC=C)C(=O)C=C2OCO3)c(F)cc1OC [Compound 16, (6S,7aR)-6-allyl-7a-((R)-1-(5-(allyloxy)-2-fluoro-4-methoxyphenyl)propan-2-yl)-7,7a-dihydrobenzo[d][1,3]dioxol-5(6H)-one] | 520 | 620 |  |
| C=CC[C@H]1C[C@]2([C@@H](C)Cc3cc(N)c(OC)cc3F)OCOC2=CC1=O [Compound 17, (6S,7aR)-6-allyl-7a-((S)-1-(5-amino-2-fluoro-4-methoxyphenyl)propan-2-yl)-7,7a-dihydrobenzo[d][1,3]dioxol-5(6H)-one] | 29 | 160 |  |
| C=CC[C@H]1C[C@]2([C@@H](C)Cc3cc(NC(C)=O)c(OC)cc3F)OCOC2=CC1=O [Compound 18, N-(5-((S)-2-((3aR,5S)-5-allyl-6-oxo-3a,4,5,6-tetrahydrobenzo[d][1,3]dioxol-3a-yl)propyl)-4-fluoro-2-methoxyphenyl)acetamide] | 160 | 410 |  |
| C=CC[C@H]1C[C@]2([C@@H](C)Cc3ccc(OC)c(OC)c3F)OCOC2=CC1=O [Compound 20, (6S,7aR)-6-allyl-7a-((S)-1-(2-fluoro-3,4-dimethoxyphenyl)propan-2-yl)-7,7a-dihydrobenzo[d][1,3]dioxol-5(6H)-one] | 710 |  |  |
| C=CC[C@H]1C[C@]2([C@H](C)Cc3ccc(OC)c(OC)c3F)OCOC2=CC1=O [Compound 21, (6S,7aR)-6-allyl-7a-((R)-1-(2-fluoro-3,4-dimethoxyphenyl)propan-2-yl)-7,7a-dihydrobenzo[d][1,3]dioxol-5(6H)-one] | 2800 | 3000 |  |
| C=CC[C@H]1C[C@]2([C@H](C)Cc3ccc(OC)c(F)c3F)OCOC2=CC1=O [Compound 22, (6S,7aR)-6-allyl-7a-((R)-1-(2,3-difluoro-4-methoxyphenyl)propan-2-yl)-7,7a-dihydrobenzo[d][1,3]dioxol-5(6H)-one] | 900 | 2400 |  |
| C=CC[C@H]1C[C@]2([C@H](C)Cc3c(F)cc(OC)cc3F)OCOC2=CC1=O [Compound 23, (6S,7aR)-6-allyl-7a-((R)-1-(2,6-difluoro-4-methoxyphenyl)propan-2-yl)-7,7a-dihydrobenzo[d][1,3]dioxol-5(6H)-one] | 270 | 720 |  |
| C=CC[C@H]1C[C@]2([C@H](C)Cc3ccc(OC)c(OC)c3)OCOC2=CC1=O [Compound 24, (6S,7aR)-6-allyl-7a-((R)-1-(3,4-dimethoxyphenyl)propan-2-yl)-7,7a-dihydrobenzo[d][1,3]dioxol-5(6H)-one] |  |  | IC50 ([1]; Table 4): 110 nM; IC50 [2, 6]: 320 nM |
| C=CC[C@H]1C[C@]2([C@@H](C)Cc3ccc(OC)cc3)OCOC2=CC1=O [Compound 25, (6S,7aR)-6-allyl-7a-((S)-1-(4-methoxyphenyl)propan-2-yl)-7,7a-dihydrobenzo[d][1,3]dioxol-5(6H)-one] |  |  | IC50 ([1]; Table 4): 61 nM; IC50 [2, 6]: 88 nM |
| C=CC[C@H]1C[C@]2([C@@H](C)Cc3ccc(OC)c(C)c3)OCOC2=CC1=O [Compound 27, (6S,7aR)-6-allyl-7a-((S)-1-(4-methoxy-3-methylphenyl)propan-2-yl)-7,7a-dihydrobenzo[d][1,3]dioxol-5(6H)-one] |  |  | IC50 ([1]; Table 4): 410 nM; IC50 [2, 6]: 630 nM |
| C=CC[C@@H]1C[C@]2([C@H](C)Cc3cc(O)c(OC)cc3F)OCOC2=CC1=O [SQ 1378] |  |  | IC50 [2, 7]: 1900 nM |
| C=CC[C@@H]1C[C@]2([C@@H](C)Cc3cc(O)c(OC)cc3F)OCOC2=CC1=O [SQ 1389] |  |  | IC50 [2, 7]: 2500 nM |
